# Laboratory results from publication PMC11992225, “Antibacterial compounds against non-growing and intracellular bacteria” (npj Antimicrobials and Resistance, 2025).
# Like-named read-outs stand apart in the source and are kept apart here.
# Columns and labels:
# non-growing UPEC CFT073 = assay: Dilution-regrowth assay (screen, hit validation, dose-response) on stationary-phase UPEC; format: cell-based, Escherichia coli; details: for EC50: Escherichia coli; for Regrowth, OD600 at 6h or 8h after dilution into drug-free medium: average
# Procedure, shortened: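 Regrowth (OD600 after 6 h, 37 °C) of diluted non-growing CFT073, following 24 h compound treatment of 24 h stationary cultures, defines activity relative to untreated control. Screen at 20 µM, validation at 20, 10, 5 µM (duplicates), dose–response in three biological replicates fitted by five-parameter logistic.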
# [1] = tested on: non-growing S. aureus DSM2569; assay: Dilution-regrowth assay (OD600, start-growth-time) on stationary-phase S. aureus; format: cell-based, Staphylococcus aureus; details: S. aureus; for EC50: Staphylococcus aureus, DSM2569, regrowth delay of non-growing bacteria, 1:4 CA-MHB pH 7.4, 24 h treatment, OD600 8 h after dilution, read-out: EC50; for Regrowth, OD600 at 6h or 8h after dilution into drug-free medium: average
# Procedure: The cultures were grown and treated for 24 h in 1:4 CA-MHB (pH 7.4).
# This approach allowed us to capture the time when cultures reached a threshold optical density (start-growth-time, SGT[15]).
# The cultures were incubated for 24 h in non-baffled Erlenmeyer flasks at 37 °C with shaking at 200 rpm.
# For P. aeruginosa and S. aureus, dose–response analysis was conducted in 96-well plates with a 200 μl assay volume, following the procedure used for screening assay validation experiments. […] Stock solutions were prepared and stored according to the manufacturers’ instructions, then diluted in 10% DMSO before use. Cultures were incubated for 24 h in 1:4 diluted CA-MHB medium under the same conditions used for UPEC cultivation. In preliminary experiments, each compound was tested at a concentration of 20 μM in the dilution-regrowth assay with 4 technical replicates. Regrowth was monitored using a microplate reader at 37 °C with continuous shaking, and OD600 was recorded every 20 min. The time at which OD600 exceeded the threshold of 0.12 was recorded as the Start_Growth-Time.
# Statistical significance of the drug effects was assessed using a one-way ANOVA followed by Dunnett’s test, comparing each treatment to the drug-free control. Statistical significance of the differences in chemical characteristics between the hit compounds and the Prestwick library was assessed using a Mann–Whitney test. Statistical significance was set at P ≤ 0.05. A five-parameter logistic equation was used for asymmetric sigmoidal curve fitting and for EC50 and IC50 determination. The Venn diagram in Fig. 1F was prepared using BioVenn web application. Characteristics of the chemical and physical properties of Prestwick library compounds were obtained from Supplementary Table S1 from reference. Characteristics of the hit compounds not included in the Prestwick library were retrieved from the PubChem database.
# [2] = tested on: intracellular S. flexneri 5a M90T in TC7 cells; assay: microbe, parasite or virus in culture; format: cell-based, Shigella flexneri; details: for IC50: Shigella flexneri, TC7, 14 h
# [3] = TC7 cells infected with GFP-expressing S. flexneri, 14 h treatment
structure (smiles),measurement,setting,value
CO[C@H]1/C=C/O[C@@]2(C)Oc3c(C)c(O)c4c(O)c(c(/C=N/N5CCN(C)CC5)c(O)c4c3C2=O)NC(=O)/C(C)=C\C=C\[C@H](C)[C@H](O)[C@@H](C)[C@@H](O)[C@@H](C)[C@H](OC(C)=O)[C@@H]1C [Rifampicin],EC50,"non-growing UPEC CFT073; E. coli, LPM pH 5.5, regrowth delay of non-growing bacteria, 24 h treatment, OD600 6 h after 2500-fold dilution, read-out: EC50",0.95 µM
same,EC50,"non-growing UPEC CFT073; LPM pH 5.5 (red curve), medium assigned by comparison with Dataset 1, read-out: EC50 (regrowth inhibition curve, Fig. S4)",0.97 µM
same,EC50,[1],0.043 µM
same,IC50,[2],3.23 µM
same,"Fluorescence intensity (RFU), Mean, 0.0625 x MIC","[2]; TC7 cells infected with GFP-expressing S. flexneri, 14 h treatment, 0.0625 x MIC",10229.8 RFU
same,"Fluorescence intensity (RFU), Mean, 0.125 x MIC","[2]; TC7 cells infected with GFP-expressing S. flexneri, 14 h treatment, 0.125 x MIC",10528.2 RFU
same,"Fluorescence intensity (RFU), Mean, 0.25 x MIC",[2]; [3],10619.3 RFU
same,"Fluorescence intensity (RFU), Mean, 0.5 x MIC",[2]; [3],4149.04 RFU
same,"Fluorescence intensity (RFU), Mean, 2 x MIC",[2]; [3],1695.78 RFU
same,"Fluorescence intensity (RFU), Mean, 4 x MIC",[2]; [3],1392.42 RFU
same,"Fluorescence intensity (RFU), Mean, 8 x MIC",[2]; [3],1299.69 RFU
same,"Fluorescence intensity (RFU), Mean, 16 x MIC",[2]; [3],1165.58 RFU
same,"Fluorescence intensity (RFU), Mean, 32 x MIC",[2]; [3],1042.53 RFU
same,"Fluorescence intensity (RFU), Mean, MIC",[2]; [3],2886.31 RFU
CC1COc2c(N3CCN(C)CC3)c(F)cc3c(=O)c(C(=O)O)cn1c23 (stereo not drawn) [Ofloxacin],"Regrowth, OD600 at 6h or 8h after dilution into drug-free medium","non-growing UPEC CFT073; E. coli in 1:4 CA-MHB (pH 7.4), concentration 0.25",0.670
same,"Regrowth, OD600 at 6h or 8h after dilution into drug-free medium","non-growing UPEC CFT073; E. coli in 1:4 CA-MHB (pH 7.4), concentration 0.5",0.686
same,"Regrowth, OD600 at 6h or 8h after dilution into drug-free medium","non-growing UPEC CFT073; E. coli in 1:4 CA-MHB (pH 7.4), concentration 1",0.685
same,"Regrowth, OD600 at 6h or 8h after dilution into drug-free medium","non-growing UPEC CFT073; E. coli in 1:4 CA-MHB (pH 7.4), concentration 2.5",0.648
same,"Regrowth, OD600 at 6h or 8h after dilution into drug-free medium","non-growing UPEC CFT073; E. coli in 1:4 CA-MHB (pH 7.4), concentration 5",0.610
same,"Regrowth, OD600 at 6h or 8h after dilution into drug-free medium","non-growing UPEC CFT073; E. coli in 1:4 CA-MHB (pH 7.4), concentration 10",0.563
same,"Regrowth, OD600 at 6h or 8h after dilution into drug-free medium","non-growing UPEC CFT073; E. coli in 1:4 CA-MHB (pH 7.4), concentration 30",0.271
same,"Regrowth, OD600 at 6h or 8h after dilution into drug-free medium","non-growing UPEC CFT073; E. coli in LPM (pH 5.5), concentration 0.25",0.591
same,"Regrowth, OD600 at 6h or 8h after dilution into drug-free medium","non-growing UPEC CFT073; E. coli in LPM (pH 5.5), concentration 0.5",0.585
same,"Regrowth, OD600 at 6h or 8h after dilution into drug-free medium","non-growing UPEC CFT073; E. coli in LPM (pH 5.5), concentration 1",0.589
same,"Regrowth, OD600 at 6h or 8h after dilution into drug-free medium","non-growing UPEC CFT073; E. coli in LPM (pH 5.5), concentration 2.5",0.574
same,"Regrowth, OD600 at 6h or 8h after dilution into drug-free medium","non-growing UPEC CFT073; E. coli in LPM (pH 5.5), concentration 5",0.582
same,"Regrowth, OD600 at 6h or 8h after dilution into drug-free medium","non-growing UPEC CFT073; E. coli in LPM (pH 5.5), concentration 10",0.564
same,"Regrowth, OD600 at 6h or 8h after dilution into drug-free medium","non-growing UPEC CFT073; E. coli in LPM (pH 5.5), concentration 30",0.570
same,"Regrowth, OD600 at 6h or 8h after dilution into drug-free medium",[1]; concentration 0.1,0.643
same,"Regrowth, OD600 at 6h or 8h after dilution into drug-free medium",[1]; concentration 0.5,0.590
same,"Regrowth, OD600 at 6h or 8h after dilution into drug-free medium",[1]; concentration 2.5,0.519
same,"Regrowth, OD600 at 6h or 8h after dilution into drug-free medium",[1]; concentration 10,0.417
same,EC50,[1],14.3 µM
same,IC50,[2],0.113 µM
same,"Fluorescence intensity (RFU), Mean, 0.25 x MIC",[2]; [3],9690.38 RFU
same,"Fluorescence intensity (RFU), Mean, 0.5 x MIC",[2]; [3],8574.42 RFU
same,"Fluorescence intensity (RFU), Mean, 2 x MIC",[2]; [3],3677.86 RFU
same,"Fluorescence intensity (RFU), Mean, 4 x MIC",[2]; [3],3135.58 RFU
same,"Fluorescence intensity (RFU), Mean, 8 x MIC",[2]; [3],2241.58 RFU
same,"Fluorescence intensity (RFU), Mean, 16 x MIC",[2]; [3],1713.97 RFU
same,"Fluorescence intensity (RFU), Mean, 32 x MIC",[2]; [3],1616.14 RFU
same,"Fluorescence intensity (RFU), Mean, MIC",[2]; [3],4797.17 RFU
